Source: patent US20240358721A1, “GASDERMIN-D INHIBITORS AND USES THEREOF FOR TREATING PULMONARY VASO-OCCLUSION” (UNIVERSITY OF PITTSBURGH-OF THE COMMONWEALTH SYSTEM OF …, priority 2021, published 2024)
Entries after “also recorded” stand apart in the source; their conditions may differ. Where a SMILES comes first, the peptide text is derived from it. The star is where a group is joined. Cbz = O=C(OCc1ccccc1)*; CH2F = FC*

Legend:
Type in all cases: in vivo, mouse
SCD-Selp−/− mice [1] = experiment: qFILM assessment of P-selectin-independent pulmonary vaso-occlusion in SCD-Selp−/− mice IV administered oxy-Hb; conditions: IV 10 μmole/kg oxy-Hb with 10 mg/kg inhibitor vs oxy-Hb alone
From the text: (§1) Quantitative fluorescence intravital lung microscopy (qFILM) was used to assess the absence or presence of platelet-neutrophil aggregate mediated pulmonary vaso-occlusion. Pulmonary microcirculation (pseudo-colored purple), neutrophils (red) and platelets (pseudo-colored green) were labeled in vivo by IV administration of FITC dextran, AF546-anti-Ly6G Ab and V450-anti-CD49b Ab, respectively. […] White arrows denote the direction of blood flow within the pulmonary arterioles. Alveoli are marked with asterisks. Scale bars 20 μm. The diameter of pulmonary arteriole in B-E is ˜22 μm, 32 μm, 31.5 μm, and 31 μm, respectively. […] Refer Online Data Supplement for details. […] The data for mice with SCD IV administered 10 oxy-Hb (n=5 mice; 75 FOVs) are included as black bars in FIGS. 1N and 1O for relative comparison. qFILM FOV size ˜65 536 μm^2. Data represent mean ±SE and are compared using Student t test. *P<0.05 (FIG. 1P) Schematic showing the main findings of the study. The sterile inflammatory milieu (DAMPs, IFN-I signaling, and ROS) in SCD promotes caspase-4 (humans) or caspase-11 (mouse)-dependent cleavage of neutrophil GSDMD into the active form GSDMD-NT, leading to the shedding of NETs in the liver microcirculation. Once shed, these NETs are carried by the blood as cNETs to the lung, where they promote neutrophil-platelet aggregation in the pulmonary arterioles, leading to PVO and lung injury (acute chest syndrome).
SCD-Selp^−/− mice were IV administered 10 μmole/kg oxy-Hb (10 oxy-Hb) without or with 10 mg/kg GSDMD inhibitor (Disulfiram). Quantitative fluorescence intravital lung microscopy (qFILM) was used to assess the absence or presence of pulmonary vasoocclusion using the same experimental scheme described in FIG. 1A. Pulmonary vasoocclusions (PVOs) were compared between treatment groups using following two parameters: Number of PVOs per Field of View (#PVOs/FOV) and number of large PVOs (with area>1000 μm^2) per FOV. […] The data for SCD mice IV administered 10 oxy-Hb (n=5 mice; 75 FOVs) is included as black bars in FIGS. 4A and 4B for relative comparison. FOV size˜65,536 μm^2. […]
(§2) (FIG. 5A) Experimental scheme: SCD or SCD-Selp^−/− mice were IV administered 10 μmole/kg oxy-Hb (10 oxy-Hb) without or with 10 mg/kg GSDMD inhibitors LDC75591 or Disulfiram. In FIGS. 5C-5D, venous blood was processed to generate PPP and cNETs detected in PPP using Imaging Flow Cytometry. Imaging Flow Cytometry data was quantified to estimate concentration of cNETs (#cNETs/μl of plasma). In FIGS. 5B, and 5E-5F, quantitative fluorescence intravital lung microscopy (qFILM) was used to detect arrival of circulating NETs (cNETs) within the lung microcirculation. Number of cNETs entering per FOV over a 1-minute duration (#cNETs/FOV/min) were quantified. […]

SCD-Selp−/− mice [2] = experiment: qFILM detection of circulating NETs arriving in the lung microcirculation, SCD-Selp−/− mice; conditions: IV 10 μmole/kg oxy-Hb with 10 mg/kg inhibitor vs oxy-Hb alone, significant
Description: as §2, with “quantified. In FIGS. 5G-5J, qFILM was used to assess the absence or presence of pulmonary vaso-occlusion using the experimental strategy described in FIG. 1A. Pulmonary vaso-occlusions (PVOs) were compared between treatment groups using following two parameters: Number of PVOs per Field of View (#PVOs/FOV) and number of large PVOs (with area>1000 μm^2) per FOV.” for “quantified.”
Quantitative fluorescence intravital lung microscopy (qFILM) has been used widely for in vivo assessment of pulmonary vasoocclusion in mice with SCD [Bennewitz M F et al., (2017); Vats R, Brzoska T, Bennewitz M F, et al. (2020); Vats R, Tutuncuoglu E, Pradhan-Sundd T, Tejero J, Shaw G D, Sundd P. (2020); Bennewitz M F, Tutuncuoglu E, Gudapati S, et al. (2020)] […]

SCD mice = experiment: qFILM assessment of pulmonary vaso-occlusion in SCD mice IV administered oxy-Hb; conditions: LDC7559 10 mg/kg, Z-VAD-FMK 0.004 μmol/kg; for Number of PVOs per Field of View (#PVOs/FOV) / number of large PVOs (with area>1000 μm^2) per FOV: IV 10 μmole/kg oxy-Hb with inhibitor vs oxy-Hb alone; for Number of PVOs per Field of View (#PVOs/FOV) / number of large PVOs (with area>1000 μm^2) per FOV / blood flow in the lung (rapidly transiting erythrocytes) / lung vaso-occlusion in representative qFILM images: NSA 20 mg/kg; for blood flow in the lung (rapidly transiting erythrocytes) / lung vaso-occlusion in representative qFILM images / large neutrophil-platelet aggregates occluding the arteriolar bottle-necks in the lung: IV 10 μmole/kg oxy-Hb with inhibitor; for large neutrophil-platelet aggregates occluding the arteriolar bottle-necks in the lung: Necrosulfonamide 20 mg/kg
From the text: as §1
Intravital lung microscopy (experimental scheme shown in FIG. 1A) was conducted in live mice to assess whether preventing liver-to-lung embolization of cNETs by inhibiting or deleting GSDMD-signaling leads to amelioration of pulmonary vaso-occlusion. Although large neutrophil-platelet aggregates (marked with dotted ellipses) were seen occluding the arteriolar bottle-necks, leading to impaired blood flow in the lung of SCD mice IV administered 10 μmole/kg oxy-Hb (FIG. 1B), such aggregates were rare in the lung of SCD mice IV administered 10 μmole/kg oxy-Hb with 0.004 μmol/kg pan-caspase inhibitor Z-VAD-FMK (FIG. 1C) or 10 mg/kg GSDMD-NT inhibitor LDC7559 (FIG. 1D) or 20 mg/kg GSDMD-NT inhibitor Necrosulfonamide (FIG. 1E). […] The twofold higher dose of 20 μmole/kg IV oxy-Hb also led to the development of lung vaso-occlusion in WT but not Gsdmd^−/− mice (FIG. 2). […] P-selectin deficiency led to an approximately 50% reduction in pulmonary vaso-occlusion in SCD-Selp^−/− mice administered 10 μmole/kg IV oxy-Hb (FIG. 3), however, IV administration of oxy-Hb with GSDMD-NT inhibitor (LDC7559) led to further threefold (significant) reduction in pulmonary vaso-occlusions per FOV (FIGS. 1N and 4A, and FIG. 5) and absence of large pulmonary vaso-occlusions (area>1000 μm^2) per FOV (FIG. 10) in SCD-Selp^−/− mice.
Quantitative fluorescence intravital lung microscopy (qFILM) has been used widely for in vivo assessment of pulmonary vasoocclusion in mice with SCD [Bennewitz M F et al., (2017); Vats R, Brzoska T, Bennewitz M F, et al. (2020); Vats R, Tutuncuoglu E, Pradhan-Sundd T, Tejero J, Shaw G D, Sundd P. (2020); Bennewitz M F, Tutuncuoglu E, Gudapati S, et al. (2020)] In the current study, qFILM was used to assess pulmonary vaso-occlusion and detect NETs in the intact lung microcirculation of live mice following IV challenge with saline, oxy-hemoglobin (oxy-Hb), hemin, or lipo-polysaccharide with or without pretreatment with N-terminus active domain (GSDMD-NT) inhibitors LDC7559 [Sollberger G, Choidas A, Burn G L, et al. (2018)], NSA [Rathkey J K, Zhao J, Liu Z, et al. (2018)], Disulfiram [Hu J J, Liu X, Xia S, et al. (2020)], or the pan-caspase inhibitor Z-VAD-FMK [Sollberger G, Choidas A, Burn G L, et al. (2018)], haptoglobin [Belcher J D, Chen C, Nguyen J, et al. (2014)], or TLR4-inhibitor (TAK242) [Belcher J D, Chen C, Nguyen J, et al. (2014)]. qFILM was conducted with a Nikon multiphoton excitation fluorescence microscope and an APO LWD 25×water immersion objective with 1.1 NA. […]

Structure (SMILES)	number of large PVOs (with area>1000 μm^2) per FOV (SCD-Selp−/− mice [1])	Number of PVOs per Field of View (#PVOs/FOV) (SCD-Selp−/− mice [1]; 10 mg/kg)	#cNETs/FOV/min in the lung, less than 10 oxy-Hb alone (SCD-Selp−/− mice [2])	Number of PVOs per Field of View (#PVOs/FOV) (SCD mice)	number of large PVOs (with area>1000 μm^2) per FOV (SCD mice)	Number of PVOs per Field of View (#PVOs/FOV) (SCD mice; listed as NSA)	number of large PVOs (with area>1000 μm^2) per FOV (SCD mice; listed as NSA)	blood flow in the lung (rapidly transiting erythrocytes) (SCD mice)	lung vaso-occlusion in representative qFILM images (SCD mice)	lung vaso-occlusion in representative qFILM images (SCD mice; listed as NSA)	large neutrophil-platelet aggregates occluding the arteriolar bottle-necks in the lung (SCD mice)
CCN(CC)C(=S)SSC(=S)N(CC)CC [Disulfiram, disulfiram]	absent	significantly reduced	4 folds	–	–	–	–	–	–	–	–
COc1nccnc1NS(=O)(=O)c1ccc(NC(=O)/C=C/c2ccc([N+](=O)[O-])s2)cc1 [Necrosulfonamide, necrosulfonamide]	–	–	–	significantly reduced	significantly reduced	significantly less	significantly less	significantly improved	lack of pulmonary vaso-occlusion	absence of lung vaso-occlusion	rare
COC(=O)C[C@H](NC(=O)[C@H](C)NC(=O)[C@@H](NC(=O)OCc1ccccc1)C(C)C)C(=O)CF [Z-VAD-FMK] (Cbz-Val-Ala-Asp(OMe)-CH2F)	–	–	–	significantly less; also recorded: significantly reduced	significantly less; also recorded: significantly reduced	–	–	significantly improved	absence of lung vaso-occlusion; also recorded: lack of pulmonary vaso-occlusion	–	rare
